These results are taken from US8987304B2, “Antituberculous composition comprising oxazole compounds” (priority 2005, dated 2015).

The structures appear in SMILES notation.

One data set has as its system CYP1A1/2. In words: ethoxyresorufin deethylation activity in human hepatic microsome. As for the experimental part: (§1) 4-2. Effect of the Oxazole Compound (I) on the Enzymatic Activity of Each Molecular Species of Cytochrome P450 (CYP)
(§2) Basic reaction composition (0.5 ml) was consisting of microsome protein 0.2-1 mg/ml, 100 mM phosphate buffer (pH 7.4), 0.1 mM EDTA, NADPH generation system (2.5 mM β-NADP, 25 mM glucose-6-phosphate, 2 units glucose-6-phosphate dehydrogenase and 10 mM magnesium chloride), with or without each substrate and inhibitor, and the reaction was performed at 37° C. for 10-60 minutes. Each substrate and its concentration used were 7-ethoxyresorufln (0.5 μM), coumarin (2 μM), 7-benzyloxyresorufin (1.5 μM), tolbutamide (400 μM), S-mephenyloin (100 μM), bufuralol (20 μM), chlorzoxazone (100 μM), testosterone (100 μM) and nifedipine (50 μM).
(§3) Generated products after the metabolic response were measured by using high performance liquid chromatography after extraction.

For data set [1], the system named is clinical isolates of tubercle bacillus, TBT-9 and TBT-14. In words: In vitro combined effect: MIC on 7H11 agar plates and FIC index. Format: cell-based. The following applies: 37° C., 2 weeks; for MIC: Bacillus, 336 h, each agent alone. On the procedure: In Vitro Experiment on the Combined Effect of an Oxazole Compound (I) and Another Agent
A suspension of tubercle bacillus was prepared at about 10^6 CFU/ml (for clinical isolates of tubercle bacillus, TBT-9 and TBT-14). About 10 μl aliquots thereof were inoculated on respective plates by using a multipoint inoculator.

Data set [2] has as its system hepatic microsomal enzyme. Kind of data set: In vitro metabolism, dog hepatic microsome. In kind it is in vitro ADME. As to conditions: 100 μM, microsome protein 1 mg/ml, 37° C., 2 hours. As for the experimental part:
(§4) 4-1. In Vitro Metabolism of Oxazole Compound (I)
(§5) Studies on in vitro metabolism of oxazole compound (I) (compound (A-R)) were performed using hepatic microsomal enzyme of human and various animals (mouse, rat, dog, rabbit and monkey). Human microsome was obtained from Attached Primate Research Institute, HAB Discussion Group (Chiba, Japan). […] The reaction was terminated by adding organic solvent (acetonitrile or ethyl acetate) and generated metabolites were extracted. The extracted metabolites were detected by using high performance liquid chromatography and liquid chromatograph electrospray ionization tandem mass spectrometry to confirm amount of generation.

Data set [3] relates to hepatic microsomal enzyme. Kind of data set: In vitro metabolism, human hepatic microsome. In kind it is in vitro ADME. As to conditions: 100 μM, microsome protein 1 mg/ml, 37° C., 2 hours. On the procedure:
as §4, §5

In data set [4] the test system is hepatic microsomal enzyme. Kind of data set: In vitro metabolism, monkey hepatic microsome. In kind it is in vitro ADME. The following applies: 100 μM, microsome protein 1 mg/ml, 37° C., 2 hours. As for the experimental part: as §4, §5
The test system of data set [5] is each CYP enzyme (CYP1A/2, CYP2A6, CYP2B6, CYP2C8/9, CYP2C19, CYP2D6, CYP2E1 and CYP3A4). Kind of data set: Summary: effect on each CYP enzyme activity in human hepatic microsome. As to conditions: up to 100 μM. As for the experimental part: as §1, §2, §3
The target in a further data set is CYP2C19 (Homo sapiens, UniProt P33261). In words: S-mephenytoin hydroxylation activity in human hepatic microsome. The following applies: liver microsomes, pH 7.4, probe S-mephenytoin (100 μM). As for the experimental part:
as §1, §2, §3

The target of the next data set is CYP2D6 (Homo sapiens, UniProt P10635). Kind of data set: bufuralol hydroxylation activity in human hepatic microsome. The following applies: liver microsomes, pH 7.4, probe bufuralol (20 μM). As for the experimental part: as §1, §2, §3
Sequence of CYP2D6 (P10635 whole entry): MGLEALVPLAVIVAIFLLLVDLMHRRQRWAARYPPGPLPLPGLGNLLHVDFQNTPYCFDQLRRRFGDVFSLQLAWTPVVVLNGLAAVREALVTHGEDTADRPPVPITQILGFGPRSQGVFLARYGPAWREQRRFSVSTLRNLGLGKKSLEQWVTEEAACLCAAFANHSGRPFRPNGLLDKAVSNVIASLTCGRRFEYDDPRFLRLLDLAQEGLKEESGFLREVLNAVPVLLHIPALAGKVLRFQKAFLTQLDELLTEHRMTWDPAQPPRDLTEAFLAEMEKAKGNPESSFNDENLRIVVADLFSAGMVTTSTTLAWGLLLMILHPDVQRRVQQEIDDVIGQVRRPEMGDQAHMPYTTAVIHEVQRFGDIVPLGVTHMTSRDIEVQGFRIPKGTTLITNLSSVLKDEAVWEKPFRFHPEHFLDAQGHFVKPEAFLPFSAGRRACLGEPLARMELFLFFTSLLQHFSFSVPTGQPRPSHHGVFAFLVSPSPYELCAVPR
For data set [6], the system named is hepatic microsomal enzyme. Kind of data set: In vitro metabolism, rat hepatic microsome. Format: in vitro ADME. As to conditions: 100 μM, microsome protein 1 mg/ml, 37° C., 2 hours. On the procedure: as §4, §5
In data set [7] the test system is intracellular parasitic tubercle bacillus (M. tuberculosis H37Rv) in THP-1 cells. Kind of data set: Effect on intracellular parasitic tubercle bacillus in THP-1 cells. In kind it is cell-based.
The test system of data set [8] is Experimental mouse tuberculosis model. Kind of data set: In vivo experiments for intermittent administration, experimental mouse tuberculosis model. The following applies: three times a week, twice a week or once a week; alone or in combination with conventional antituberculous drugs. The source says:
In Vivo Experiments for Intermittent Administration

Another data set deals with T1, CYP2A6 (Homo sapiens, UniProt P11509).
T1 sequence (P11509 1-494): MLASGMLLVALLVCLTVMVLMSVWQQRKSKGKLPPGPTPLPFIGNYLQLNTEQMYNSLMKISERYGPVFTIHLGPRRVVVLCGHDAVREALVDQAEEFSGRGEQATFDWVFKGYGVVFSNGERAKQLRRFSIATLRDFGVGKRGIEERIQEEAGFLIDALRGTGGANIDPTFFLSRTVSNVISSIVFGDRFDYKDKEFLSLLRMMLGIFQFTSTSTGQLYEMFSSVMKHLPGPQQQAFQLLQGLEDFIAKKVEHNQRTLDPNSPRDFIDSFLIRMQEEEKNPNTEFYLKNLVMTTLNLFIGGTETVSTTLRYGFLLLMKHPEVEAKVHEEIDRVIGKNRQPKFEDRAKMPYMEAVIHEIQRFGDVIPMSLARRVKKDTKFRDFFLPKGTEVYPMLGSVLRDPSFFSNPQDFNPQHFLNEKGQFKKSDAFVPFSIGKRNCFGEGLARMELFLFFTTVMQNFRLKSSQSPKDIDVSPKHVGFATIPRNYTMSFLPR
In words: coumarin hydroxylation activity in human hepatic microsome. On the procedure:
as §1, §2, §3

In data set [9] the test system is hepatic microsomal enzyme. Kind of data set: In vitro metabolism, mouse hepatic microsome. In kind it is in vitro ADME. The following applies: 100 μM, microsome protein 1 mg/ml, 37° C., 2 hours. As for the experimental part: as §4, §5
The subject of data set [10] is hepatic microsomal enzyme. In words: In vitro metabolism, rabbit hepatic microsome. Format: in vitro ADME. As to conditions: 100 μM, microsome protein 1 mg/ml, 37° C., 2 hours. As for the experimental part:
as §4, §5

The test system of a further data set is CYP2C8/9. In words: tolbutamide hydroxylation activity in human hepatic microsome. As for the experimental part: as §1, §2, §3
A further data set has as its target T2, CYP2B6 (Homo sapiens, UniProt P20813).
T2 sequence (P20813 1-491): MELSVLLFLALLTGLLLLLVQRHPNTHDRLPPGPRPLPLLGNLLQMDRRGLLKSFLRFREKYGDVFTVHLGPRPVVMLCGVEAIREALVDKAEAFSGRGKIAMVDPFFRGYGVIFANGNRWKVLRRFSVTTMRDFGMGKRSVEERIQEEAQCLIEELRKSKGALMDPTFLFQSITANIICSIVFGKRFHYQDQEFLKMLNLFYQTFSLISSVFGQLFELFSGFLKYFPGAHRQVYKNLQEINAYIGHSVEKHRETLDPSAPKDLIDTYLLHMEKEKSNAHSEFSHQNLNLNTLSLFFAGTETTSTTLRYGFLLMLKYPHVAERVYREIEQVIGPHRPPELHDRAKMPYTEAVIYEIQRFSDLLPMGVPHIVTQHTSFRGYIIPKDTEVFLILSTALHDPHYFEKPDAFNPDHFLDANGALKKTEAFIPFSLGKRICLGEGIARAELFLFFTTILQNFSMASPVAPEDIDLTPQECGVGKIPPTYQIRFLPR
Kind of data set: 7-benzyloxyresorufin debenzylation activity in human hepatic microsome. As to conditions: microsomes, pH 7.4. On the procedure: as §1, §2, §3

Another data set has as its target CYP2E1 (Homo sapiens, UniProt P05181). Kind of data set: chlorozoxazone hydroxylation activity in human hepatic microsome. As to conditions: 100 μM; CYP2E1, chlorozoxazone (100 μM). As for the experimental part:
as §1, §2, §3

The mark [11] stands for this setting: combination Compound (A-R) & EB.
Setting [12] is: combination Compound (A-R) & RFP.
Where [13] appears, read: human, liver microsomes, pH 7.4, probe coumarin (2 μM), coumarin hydroxylation.
Setting [14] is: liver microsomes, pH 7.4, probe tolbutamide (400 μM), hydroxylation.

Sequence of CYP2C19 (P33261 whole entry): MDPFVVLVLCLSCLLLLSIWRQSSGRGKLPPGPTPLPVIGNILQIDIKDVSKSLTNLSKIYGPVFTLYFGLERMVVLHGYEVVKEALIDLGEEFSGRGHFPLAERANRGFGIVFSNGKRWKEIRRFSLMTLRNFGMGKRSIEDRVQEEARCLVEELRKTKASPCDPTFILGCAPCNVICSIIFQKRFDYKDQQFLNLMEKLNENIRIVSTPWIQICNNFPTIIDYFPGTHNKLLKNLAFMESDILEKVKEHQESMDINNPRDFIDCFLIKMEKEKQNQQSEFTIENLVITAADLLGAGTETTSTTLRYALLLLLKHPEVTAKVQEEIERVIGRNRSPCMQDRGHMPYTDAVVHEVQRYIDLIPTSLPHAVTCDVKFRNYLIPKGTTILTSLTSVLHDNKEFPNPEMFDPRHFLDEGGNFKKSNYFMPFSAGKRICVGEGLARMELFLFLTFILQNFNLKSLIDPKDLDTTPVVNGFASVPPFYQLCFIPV
Sequence of CYP2E1 (P05181 whole entry): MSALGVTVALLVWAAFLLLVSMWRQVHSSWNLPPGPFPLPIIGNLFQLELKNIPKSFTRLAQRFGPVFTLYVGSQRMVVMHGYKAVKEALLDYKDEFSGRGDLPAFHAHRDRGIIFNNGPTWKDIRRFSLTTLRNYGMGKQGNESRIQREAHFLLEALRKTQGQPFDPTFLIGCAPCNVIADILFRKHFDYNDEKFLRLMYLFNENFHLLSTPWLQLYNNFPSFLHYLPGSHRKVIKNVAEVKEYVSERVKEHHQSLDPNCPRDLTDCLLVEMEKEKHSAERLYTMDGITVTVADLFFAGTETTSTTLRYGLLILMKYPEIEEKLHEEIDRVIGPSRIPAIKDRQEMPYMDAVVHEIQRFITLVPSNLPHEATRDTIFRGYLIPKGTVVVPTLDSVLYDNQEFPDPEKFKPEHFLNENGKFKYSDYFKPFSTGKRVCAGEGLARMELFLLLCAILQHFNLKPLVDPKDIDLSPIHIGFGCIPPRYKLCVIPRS

Take `O=c1cc(-c2ccccc2)oc2c1ccc1ccccc12` [7,8-benzoflavone, reference compound]: in the data set with CYP1A1/2 (100 μM, CYP1A1/2, 7-ethoxyresorufin (0.5 μM)), the “Relative activity (%) for control activity” value stood at 3.8%.

With `C[C@]1(COc2ccc(N3CCC(Oc4ccc(OC(F)(F)F)cc4)CC3)cc2)Cn2cc([N+](=O)[O-])nc2O1` [Compound (A-R), (R)-2-methyl-6-nitro-2-{4-[4-(4-trifluoromethoxyphenoxy)piperidin-1-yl]phenoxymethyl}-2,3-dihydroimidazo[2,1-b]oxazole], the minimum inhibitory concentration (MIC) in data set [1] (line Compound (A-R) & EB) was 0.012 µg/mL; in data set [1] (line Compound (A-R) & RFP), 0.024 µg/mL. Also, the values for the MIC in combination in [1] (setting [11]) and in [1] (setting [12]) were 0.003 µg/mL and 0.006 µg/mL, respectively. For the same compound, the generated metabolites result in data set [2], in data set [3], in [4], in data set [6], in [9] and in data set [10] was “almost no generated metabolites” throughout. Besides, the activity at 1 μM in the data set on CYP1A1/2 (human, microsomes, pH 7.4) worked out at 99.8%; at CYP2D6, 102%; on CYP2A6 (setting [13]) it was 103%; in the data set with CYP2C8/9 (microsomes, pH 7.4), 107%; on CYP2B6 it was 111%. The activity at 10 μM worked out at 98.4% in the data set with CYP1A1/2 (human, microsomes, pH 7.4); 113% at CYP2C19; 103% at CYP2A6 (setting [13]); 107% in the data set on CYP2C8/9 (microsomes, pH 7.4); 118% at CYP2B6. In addition, the activity at 30 μM with CYP1A1/2 (human, microsomes, pH 7.4) stood at 102%; on CYP2D6 it was 103%; in the data set on CYP2C8/9 (microsomes, pH 7.4), 108%; at CYP2B6, 113%. Also, the activity at 100 μM was determined as 98.6% in the data set with CYP1A1/2 (human, microsomes, pH 7.4); 108% in the data set with CYP2C8/9 (microsomes, pH 7.4); 122% at CYP2B6. Moreover, in data set [5], the “inhibitory action and stimulation action against each CYP enzyme activity” value is “did not exhibit inhibitory action and stimulation action”. Moreover, the activity at 3 μM came to 109% at CYP2C19; 102% on CYP2D6; 102% at CYP2A6 (setting [13]); 111% in the data set with CYP2C8/9 (microsomes, pH 7.4); 109% on CYP2B6. For the same compound, in data set [7] (action for 2 hours), the “effect in short term action” value was “strong effect”. Further, in data set [7] (compound (A-R) 0.1 μg/ml compared with RFP 3 μg/ml), the “effect against intracellular parasitic tubercle bacillus at the lowest test dose” value is “equivalent effect of the maximum concentration 3 μg/ml of RFP”. Moreover, in data set [7] (test substance for 2 or 4 hours, bacteria collected at 72 hours), the “Log reduction of bacterial counts compared with time 0 hour (FIG. 2), comparison among antituberculous drugs” value is “stronger effect”. Also, the “therapeutic effect of intermittent administration compared with once a day administration” value in [8] is given as “equivalent effect”.

With `CC[C@@H](CO)NCCN[C@@H](CC)CO` [EB, ethambutol, reference compound], the MIC in data set [1] (line Compound (A-R) & EB) is 1.56 µg/mL. For the same compound, the MIC in combination in [1] (setting [11]) was 0.2 µg/mL.

Regarding `CO[C@H]1/C=C/O[C@@]2(C)Oc3c(C)c(O)c4c(O)c(c(/C=N/N5CCN(C)CC5)c(O)c4c3C2=O)NC(=O)/C(C)=C\C=C\[C@H](C)[C@H](O)[C@@H](C)[C@@H](O)[C@@H](C)[C@H](OC(C)=O)[C@@H]1C` [RFP, rifampicin, reference compound], the MIC in combination in data set [1] (setting [12]) was found to be 0.05 µg/mL.

On to `CCN(CC)C(=S)S` [diethyldithiocarbamine, reference compound], for which the “Relative activity (%) for control activity” value is recorded as 38.2% on CYP2A6 (100 μM, CYP2A6, coumarin (2 μM)) and 55.0% at CYP2E1.

As to `Cc1nc2c([nH]1)c(=O)n(C)c(=O)n2Cc1ccco1` [furafylline, reference compound], the activity at 100 μM in the data set on CYP1A1/2 (human, microsomes, pH 7.4) is 32.3%.

Regarding `O=c1c(O)c(-c2ccc(O)c(O)c2)oc2cc(O)cc(O)c12` [quercetin, reference compound], the activity at 100 μM in the data set on CYP2C8/9 (setting [14]) is 30.6%.

On to `Nc1ccc(S(=O)(=O)Nc2ccnn2-c2ccccc2)cc1` [sulfaphenazole, reference compound], for which, in the data set with CYP2C8/9 (setting [14]), the activity at 100 μM came out at 25.5%.
